Results published in patent US11179400B2, “Heterocyclic compounds as RSV inhibitors” (priority 2019, dated 2021).

Each compound was assayed on Human RSV-A (“Long” strain) (assay: RSV in vitro cytoprotection assay in HEp-2 cells (ATPlite read-out)). Details: human respiratory syncytial virus, 96 h; HEp-2 cells, genotype A “Long” strain RSV, 4-day incubation, ATPlite; read-out: Human RSV-A (“Long” strain) EC50.
Type: cell-based
Description: RSV is a single stranded negative sense RNA virus that causes respiratory tract infections which can be dangerous to infants, the elderly, and immunosuppressed individuals. Currently there is no vaccine, and therapeutic options are both costly and of limited effectiveness. These approved treatments are Ribavirin, and Palivizumab/Synagis (a monoclonal antibody). RSV has two genotypes, A and B, which differ primarily in the structure of the virus' surface “G” attachment protein. Our current primary screen focusses on RSV-A and uses an in vitro cytoprotection assay where compounds are added in 2-fold dilutions to cells which are then subjected to fully replicative viral particles. Cell viability is measured several days later along with separate measurements of compound cytotoxicity. This report focuses on the results of our most recent screening of compounds.
HEp-2 cells, (originally derived from tumors grown in irradiated-cortisonised weanling rats that had been injected with epidermoid carcinoma tissue from a person's larynx, but later found to be indistinguishable from HeLa cells by PCR DNA analysis), were used for the culturing of genotype A, “Long” strain RSV. Flasks were inoculated with RSV and viral stocks were collected once cytopathic effect (CPE) was greater than 90%. Viral stocks in 25% sucrose media were snap frozen using liquid nitrogen to increase viral stability. Viral stock titers were quantified by tissue culture infectious dose 50% (TCID50) using 8,000 cells per well and 3-fold viral dilutions across a 96-well plate, cultured for 4 days.
Following extensive parameter testing, the final assay is run as follows: HEp-2 cells are seeded into the inner 60 wells of a 96-well plate at 8,000 cells per well in a volume of 50 μL using Growth Media (DMEM without phenol red, 1% L-Glut, 1% Penn/Strep, 1% nonessential amino acids, 10% FBS). 2-Fold serial dilutions of control and test compounds are added to the wells in duplicate in a total volume of 25 μL. Viral stock is then added to the wells in a volume of 25 μL, bringing the total volume of each well to 100 μL. Each 96-well plate has a control column of 6 wells with cells and virus but no compound (negative control, max CPE), a column with cells but no compound or virus (positive control, minimum CPE), and a column with no cells or virus or compound (background plate/reagent control). The control wells with cells but no virus are given an additional 25 μL of growth media containing an equal quantity of sucrose as those wells receiving the viral stock in order to keep consistent in media and volume conditions. The outer wells of the plate are filled with 125 μL of growth media to act as a thermal and evaporative moat around the test wells. Following a 4-day incubation period, the plates are read using ATPlite (50 uL added per well), which quantifies the amount of ATP (a measure of cell health) present in each well. Assay plates are read using the Envision luminometer. In parallel, cytotoxicity is examined on an additional 96-well plate treated in an identical manner, but substituting the 25 μL of viral stock for 25 μL of growth media. […] EC50 ranges are as follows: A<0.01 μM; B 0.01-0.05 μM; C>0.05 μM.

Row | SMILES | EC50
1 | Cc1cnc(N2CC3(CCOCC3)C2)c(C(=O)Nc2ccc(C(=O)N3CCC(c4cc(C(=O)NC5CC5)cs4)=Cc4ccccc43)cc2)c1 [Example 12] | 0.01 to 0.05 µM
2 | Cc1cnc(N2CC3(CCOCC3)C2)c(C(=O)Nc2ccc(C(=O)N3CCC(c4ccc(C(=O)Nc5c(F)cccc5F)s4)=Cc4ccccc43)cc2)c1 [Example 2] | < 0.01 µM
3 | CC1=C(c2ccc(C(=O)NC3CC3)s2)CCN(C(=O)c2ccc(NC(=O)c3cc(C)cnc3N3CC4(CCOCC4)C3)cc2)c2ccccc21 [Example 13] | > 0.05 µM
4 | Cc1ccc(C(=O)Nc2ccc(C(=O)N3CCC(c4ccc(C(=O)NC5CC(F)(F)C5)s4)=Cc4ccccc43)cc2)c(N2CC3(CCOCC3)C2)n1 [Example 9] | 0.01 to 0.05 µM
5 | Cc1cnc(N2CC3(CCOCC3)C2)c(C(=O)Nc2ccc(C(=O)N3CCC(c4ccc(C(=O)NC56CC(C5)C6)s4)=Cc4ccccc43)cc2)c1 [Example 5] | 0.01 to 0.05 µM
6 | Cc1cnc(N2CC3(CCOCC3)C2)c(C(=O)Nc2ccc(C(=O)N3CCC(c4ccc(C(=O)Nc5c(C)cccc5F)s4)=Cc4ccccc43)cc2)c1 [Example 6] | 0.01 to 0.05 µM
7 | Cc1cnc(N2CC3(CCOCC3)C2)c(C(=O)Nc2ccc(C(=O)N3CCC(c4ccc(C(=O)NC5CC5)s4)=Cc4ccccc43)cc2)c1 [Example 1] | < 0.01 µM

The next lines start with the values.

Row | EC50 | SMILES
8 | < 0.01 µM | Cc1cnc(N2CC3(CCOCC3)C2)c(C(=O)Nc2ccc(C(=O)N3CCC(c4ccc(C(=O)NC5CC(F)(F)C5)s4)=Cc4ccccc43)cc2)c1 [Example 4]
9 | < 0.01 µM | Cc1cnc(N2CC3(CCOCC3)C2)c(C(=O)Nc2ccc(C(=O)N3CCC(c4ccc(C(=O)NC5CC5)cc4)=Cc4ccccc43)cc2)c1 [Example 15]
10 | 0.01 to 0.05 µM | Cc1ccc(C(=O)Nc2ccc(C(=O)N3CCC(c4ccc(C(=O)Nc5c(C)cccc5F)s4)=Cc4ccccc43)cc2)c(N2CC3(CCOCC3)C2)n1 [Example 8]
11 | 0.01 to 0.05 µM | Cc1ccc(C(=O)Nc2ccc(C(=O)N3CCC(c4ccc(C(=O)Nc5c(F)cccc5F)s4)=Cc4ccccc43)cc2)c(N2CC3(CCOCC3)C2)n1 [Example 7]
12 | > 0.05 µM | CC1=C(c2ccc(C(=O)Nc3c(C)cccc3F)s2)CCN(C(=O)c2ccc(NC(=O)c3cc(C)cnc3N3CC4(CCOCC4)C3)cc2)c2ccccc21 [Example 14]
13 | 0.01 to 0.05 µM | Cc1ccc(C(=O)Nc2ccc(C(=O)N3CCC(c4ccc(C(=O)NC56CC(C5)C6)s4)=Cc4ccccc43)cc2)c(N2CC3(CCOCC3)C2)n1 [Example 11]
14 | < 0.01 µM | Cc1ccc(C(=O)Nc2ccc(C(=O)N3CCC(c4ccc(C(=O)NC5CCC5)s4)=Cc4ccccc43)cc2)c(N2CC3(CCOCC3)C2)n1 [Example 10]
15 | < 0.01 µM | Cc1cnc(N2CC3(CCOCC3)C2)c(C(=O)Nc2ccc(C(=O)N3CCC(c4ccc(C(=O)Nc5c(C)cccc5F)cc4)=Cc4ccccc43)cc2)c1 [Example 16]
16 | < 0.01 µM | Cc1cnc(N2CC3(CCOCC3)C2)c(C(=O)Nc2ccc(C(=O)N3CCC(c4ccc(C(=O)NC5CCC5)s4)=Cc4ccccc43)cc2)c1 [Example 3]

Same assay, conditions: human respiratory syncytial virus, HEp-2

Row | SMILES | EC50
17 | O=C(Nc1ccccc1F)N[C@H]1N=C(c2ccccc2)c2ccccc2NC1=O [RSV-604, reference compound] | ~2.4 µM
